Converted amounts (≈) assume the structure as drawn.
Assays:
S. aureus NCTC 4163 = test: MIC, twofold microdilution, standard strain; type: cell-based; details: Staphylococcus aureus, NCTC4163, 18 h
S. aureus ATCC 25923 = test: MIC, twofold microdilution, standard strain; type: cell-based; details: Staphylococcus aureus, ATCC25923, 18 h
S. aureus ATCC 6538 = test: MIC, twofold microdilution, standard strain; type: cell-based, Staphylococcus aureus; details: for MIC: Staphylococcus aureus, ATCC6538, standard strain, 18 h; for MIC used in biofilm eradication assay, S. aureus 6538: Table S1, MIC
S. aureus ATCC 29213 = test: MIC, twofold microdilution, standard strain; type: cell-based; details: Staphylococcus aureus, ATCC29213, 18 h
[1] = tested on: S. epidermidis ATCC 12228; test: MIC, twofold microdilution, standard strain; type: cell-based; details: Staphylococcus epidermidis, ATCC12228, 18 h
[2] = tested on: S. epidermidis ATCC 35984; test: MIC, twofold microdilution, standard strain; type: cell-based; details: Staphylococcus epidermidis, ATCC35984, 18 h
P. aeruginosa ATCC 15442 = test: MIC, twofold microdilution, standard strain; type: cell-based, Pseudomonas aeruginosa; details: for MIC: Pseudomonas aeruginosa, ATCC15442, standard strain, 18 h; for MIC used in biofilm eradication assay, P. aeruginosa 15442: Table S1, MIC
E. coli ATCC 25922 = test: MIC, twofold microdilution, standard strain; type: cell-based, Escherichia coli; details: for MIC: Escherichia coli, ATCC25922, standard strain, 18 h; for MIC used in biofilm eradication assay, E. coli ATCC 25922: Table S1, MIC
S. aureus 180 = test: MIC, twofold microdilution, clinical strain; type: cell-based; details: Staphylococcus aureus, 18 h
S. aureus 5595 = test: MIC, twofold microdilution, clinical strain; type: cell-based; details: Staphylococcus aureus, 18 h
S. aureus T5595 = test: MIC, twofold microdilution, clinical strain; type: cell-based, Staphylococcus aureus; details: Staphylococcus aureus, T5595, 18 h
S. aureus T5591 = test: MIC, twofold microdilution, clinical strain; type: cell-based, Staphylococcus aureus; details: Staphylococcus aureus, T5591, 18 h
S. epidermidis 4341 = test: MIC, twofold microdilution, clinical strain; type: cell-based; details: Staphylococcus epidermidis, 18 h
S. epidermidis 5253 = test: MIC, twofold microdilution, clinical strain; type: cell-based, Staphylococcus epidermidis; details: Staphylococcus epidermidis, 5253, 18 h
S. epidermidis KR4243/1 = test: MIC, twofold microdilution, clinical strain; type: cell-based; details: Staphylococcus epidermidis, 18 h
S. pasteuri KR 4358 = test: MIC, twofold microdilution, clinical strain; type: cell-based; details: Staphylococcus pasteuri, KR4358, 18 h
P. aeruginosa 37 = test: MIC, twofold microdilution, clinical strain; type: cell-based; details: Pseudomonas aeruginosa, 18 h
P. aeruginosa 659 = test: MIC, twofold microdilution, clinical strain; type: cell-based; details: Pseudomonas aeruginosa, 18 h
E. coli 951 = test: MIC, twofold microdilution, clinical strain; type: cell-based; details: Escherichia coli, 18 h
E. coli 520 = test: MIC, twofold microdilution, clinical strain; type: cell-based; details: Escherichia coli, 18 h
E. coli 600 = test: MIC, twofold microdilution, clinical strain; type: cell-based, Escherichia coli; details: Escherichia coli, 600, 18 h
E. cloacae 8 = test: MIC, twofold microdilution, clinical strain; type: cell-based, Escherichia cloacae; details: Enterobacter cloacae, 8; clinical strain, 18 h
K. pneumoniae 28 = test: MIC, twofold microdilution, clinical strain; type: cell-based; details: Klebsiella pneumoniae, 18 h
K. pneumoniae 510 = test: MIC, twofold microdilution, clinical strain; type: cell-based, Klebsiella pneumoniae; details: for share of the reference (CP) activity: Klebsiella pneumoniae rods; for MIC: Klebsiella pneumoniae, 510, clinical strain, 18 h
M. tuberculosis H37Rv = test: Tuberculostatic activity, Microplate Alamar Blue Assay (MIC); type: cell-based, Mycobacterium tuberculosis; details: Mycobacterium tuberculosis, H37RV; MABA; read-out: MIC M. tuberculosis H37Rv
[3] = tested on: M. tuberculosis Spec. 192; test: as above; type: cell-based; details: Mycobacterium tuberculosis, MABA, read-out: MIC M. tuberculosis Spec. 192 (sensitive to tuberculostatics)
PC3 cells = test: MTT assay, cytotoxic activity; type: cell-based, human; details: for IC50: Homo sapiens, PC-3, 72 h, MTT, 72 h
Outline: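 PC3 cells were grown at 37 °C/5% CO2 and exposed to test compounds. Viability came from MTT reduction, as test absorbance over untreated-control absorbance × 100%.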

[4] = MTT assay, cytotoxic activity; type: cell-based; details: human, HaCaT cells (immortal keratinocytes); MTT, 72 h, normal cell line; read-out: IC50 HaCaT
Outline: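 MTT assay on cells grown at 37 °C/5% CO2. Viability is expressed as relative MTT reduction: test absorbance divided by untreated-control absorbance, ×100%.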

[5] = tested on: clinical bacterial strains; test: MIC, clinical isolates as groups of strains; type: cell-based

O=C(O)c1cn(C2CC2)c2cc(N3CCN(C(=O)CCCCl)CC3)c(F)cc2c1=O [Compound 5, 7-[4-(4-Chlorobutyryl)-piperazin-1-yl]-1-cyclopropyl-6-fluoro-4-oxo-1,4-dihydro-quinoline-3-carboxylic Acid]
MIC (S. aureus NCTC 4163): 0.2 mg/L (≈ 0.459 µM) | MIC (S. aureus ATCC 25923): 0.8 mg/L (≈ 1.84 µM) | MIC (S. aureus ATCC 6538): 0.2 mg/L (≈ 0.459 µM) | MIC used in biofilm eradication assay, S. aureus 6538 (S. aureus ATCC 6538): 0.200 mg/L (≈ 0.459 µM) | MIC (S. aureus ATCC 29213): 0.4 mg/L (≈ 0.918 µM) | MIC [1]: 0.4 mg/L (≈ 0.918 µM) | MIC [2]: 0.2 mg/L (≈ 0.459 µM) | MIC (P. aeruginosa ATCC 15442): 0.2 mg/L (≈ 0.459 µM) | MIC used in biofilm eradication assay, P. aeruginosa 15442 (P. aeruginosa ATCC 15442): 0.200 mg/L (≈ 0.459 µM) | MIC (E. coli ATCC 25922): 0.025 mg/L (≈ 0.0574 µM) | MIC used in biofilm eradication assay, E. coli ATCC 25922 (E. coli ATCC 25922): 0.025 mg/L (≈ 0.0574 µM) | MIC (S. aureus 180): 0.4 mg/L (≈ 0.918 µM) | MIC (S. aureus 5595): 0.4 mg/L (≈ 0.918 µM) | MIC (S. aureus T5595): 0.4 mg/L (≈ 0.918 µM) | MIC (S. aureus T5591): 0.4 mg/L (≈ 0.918 µM) | MIC (S. epidermidis 4341): 12.8 mg/L (≈ 29.4 µM) | MIC (S. epidermidis 5253): > 25.6 mg/L | MIC (S. epidermidis KR4243/1): 0.2 mg/L (≈ 0.459 µM) | MIC (S. pasteuri KR 4358): 0.2 mg/L (≈ 0.459 µM) | MIC (P. aeruginosa 37): 0.8 mg/L (≈ 1.84 µM) | MIC (P. aeruginosa 659): 0.8 mg/L (≈ 1.84 µM) | MIC (E. coli 951): 0.8 mg/L (≈ 1.84 µM) | MIC (E. coli 520): 0.025 mg/L (≈ 0.0574 µM) | MIC (E. coli 600): 0.025 mg/L (≈ 0.0574 µM) | MIC (E. cloacae 8): 0.05 mg/L (≈ 0.115 µM) | MIC (K. pneumoniae 28): > 25.6 mg/L | share of the reference (CP) activity (K. pneumoniae 510): 62.5% | MIC (K. pneumoniae 510): 6.4 mg/L (≈ 14.7 µM) | MIC (M. tuberculosis H37Rv): 0.5 mg/L (≈ 1.15 µM) | MIC [3]: 0.5 mg/L (≈ 1.15 µM) | IC50 (PC3 cells): 97.2 ± 11 µM | IC50 at 72 h [4]: > 100 µM | share of the reference (CP) activity ([5]; S. aureus T5595 and T5591): 62.5%

O=C(O)c1cn(C2CC2)c2cc(N3CCN(C(=O)CCCBr)CC3)c(F)cc2c1=O [Compound 10, 7-[4-(4-Bromobutyryl)-piperazin-1-yl]-1-cyclopropyl-6-fluoro-4-oxo-1,4-dihydro-quinoline-3-carboxylic Acid]
MIC (S. aureus NCTC 4163): 0.2 mg/L (≈ 0.416 µM) | MIC (S. aureus ATCC 25923): 0.4 mg/L (≈ 0.833 µM) | MIC (S. aureus ATCC 6538): 0.2 mg/L (≈ 0.416 µM) | MIC used in biofilm eradication assay, S. aureus 6538 (S. aureus ATCC 6538): 0.200 mg/L (≈ 0.416 µM) | MIC (S. aureus ATCC 29213): 0.4 mg/L (≈ 0.833 µM) | MIC [1]: 0.2 mg/L (≈ 0.416 µM) | MIC [2]: 0.1 mg/L (≈ 0.208 µM) | MIC (P. aeruginosa ATCC 15442): 0.1 mg/L (≈ 0.208 µM) | MIC used in biofilm eradication assay, P. aeruginosa 15442 (P. aeruginosa ATCC 15442): 0.100 mg/L (≈ 0.208 µM) | MIC (E. coli ATCC 25922): 0.025 mg/L (≈ 0.052 µM) | MIC used in biofilm eradication assay, E. coli ATCC 25922 (E. coli ATCC 25922): 0.025 mg/L (≈ 0.052 µM) | MIC (S. aureus 180): 0.8 mg/L (≈ 1.67 µM) | MIC (S. aureus 5595): 0.8 mg/L (≈ 1.67 µM) | MIC (S. aureus T5595): 0.8 mg/L (≈ 1.67 µM) | MIC (S. aureus T5591): 0.8 mg/L (≈ 1.67 µM) | MIC (S. epidermidis 4341): 25.6 mg/L (≈ 53.3 µM) | MIC (S. epidermidis 5253): > 25.6 mg/L | MIC (S. epidermidis KR4243/1): 0.4 mg/L (≈ 0.833 µM) | MIC (S. pasteuri KR 4358): 0.2 mg/L (≈ 0.416 µM) | MIC (P. aeruginosa 37): 0.8 mg/L (≈ 1.67 µM) | MIC (P. aeruginosa 659): 0.8 mg/L (≈ 1.67 µM) | MIC (E. coli 951): 0.4 mg/L (≈ 0.833 µM) | MIC (E. coli 520): 0.1 mg/L (≈ 0.208 µM) | MIC (E. coli 600): 0.05 mg/L (≈ 0.104 µM) | MIC (E. cloacae 8): 0.05 mg/L (≈ 0.104 µM) | MIC (K. pneumoniae 28): > 25.6 mg/L | share of the reference (CP) activity (K. pneumoniae 510): 62.5% | MIC (K. pneumoniae 510): 6.4 mg/L (≈ 13.3 µM) | MIC (M. tuberculosis H37Rv): 1 mg/L (≈ 2.08 µM) | MIC [3]: 0.5 mg/L (≈ 1.04 µM) | IC50 (PC3 cells): 84.1 ± 7.3 µM | IC50 at 72 h [4]: 89.1 ± 2.1 µM | share of CP inhibitory activity ([5]; S. aureus 180 and 5595): 62.5%

O=C(O)c1cn(C2CC2)c2cc(N3CCN(CCCCCCCCCCC(=O)N4CCN(c5cc6c(cc5F)c(=O)c(C(=O)O)cn6C5CC5)CC4)CC3)c(F)cc2c1=O [Compound 21, CP–Undecanoyl–CP Dimer]
MIC (S. aureus NCTC 4163): 12.8 mg/L (≈ 15.4 µM) | MIC (S. aureus ATCC 25923): 12.8 mg/L (≈ 15.4 µM) | MIC (S. aureus ATCC 6538): 12.8 mg/L (≈ 15.4 µM) | MIC (S. aureus ATCC 29213): 12.8 mg/L (≈ 15.4 µM) | MIC [1]: 25.6 mg/L (≈ 30.9 µM) | MIC [2]: 12.8 mg/L (≈ 15.4 µM) | MIC (P. aeruginosa ATCC 15442): > 25.6 mg/L | MIC (E. coli ATCC 25922): 25.6 mg/L (≈ 30.9 µM) | MIC (S. aureus 180): > 25.6 mg/L | MIC (S. aureus 5595): > 25.6 mg/L | MIC (S. aureus T5595): > 25.6 mg/L | MIC (S. aureus T5591): > 25.6 mg/L | MIC (S. epidermidis 4341): > 25.6 mg/L | MIC (S. epidermidis 5253): > 25.6 mg/L | MIC (S. epidermidis KR4243/1): > 25.6 mg/L | MIC (S. pasteuri KR 4358): > 25.6 mg/L | MIC (P. aeruginosa 37): > 25.6 mg/L | MIC (P. aeruginosa 659): > 25.6 mg/L | MIC (E. coli 951): > 25.6 mg/L | MIC (E. coli 520): > 25.6 mg/L | MIC (E. coli 600): > 25.6 mg/L | MIC (E. cloacae 8): > 25.6 mg/L | MIC (K. pneumoniae 28): > 25.6 mg/L | MIC (K. pneumoniae 510): > 25.6 mg/L | MIC (M. tuberculosis H37Rv): 2 mg/L (≈ 2.41 µM) | MIC [3]: 2 mg/L (≈ 2.41 µM) | IC50 (PC3 cells): 4.8 ± 0.1 µM | fold stronger cytotoxic properties than cisplatin (PC3 cells; PC3): 2.75 fold | IC50 at 72 h [4]: 73.2 ± 10.1 µM

Reference: paper PMC10233829 (ACS Omega, 2023)
